# Laboratory results reported in article PMC10850145, “Hormonal steroids induce multidrug resistance and stress response genes in Neisseria gonorrhoeae by binding to MtrR” (Nature Communications, 2024).
# Where “and” joins values, the source holds several entries; their conditions need not be identical. Identical values can stand only once.
# Tested on: FA19-rpoH-lacZ
# Assay: Gonococcal growth in liquid culture (GC broth) with hormones (Fig S7)
compound,measurement,setting,value
"C[C@]12CC[C@H]3[C@@H](CCC4=CC(=O)CC[C@@]43C)[C@@H]1CC[C@@H]2O [Testosterone, testosterone]",growth curve reading after BLANKING (testosterone run),"0 hr, 0.1 µM",0.013
same,"growth curve reading, raw replicates (testosterone run)","0 hr, 0.1 µM",0.046
same,growth curve reading after BLANKING (testosterone run),"0 hr, 1 µM",0.013
same,"growth curve reading, raw replicates (testosterone run)","0 hr, 1 µM",0.046
same,growth curve reading after BLANKING (testosterone run),"0 hr, 10 µM",0.013
same,"growth curve reading, raw replicates (testosterone run)","0 hr, 10 µM",0.046
same,growth curve reading after BLANKING (testosterone run),"0 hr, 50 µM",0.013
same,"growth curve reading, raw replicates (testosterone run)","0 hr, 50 µM",0.046
same,growth curve reading after BLANKING (testosterone run),"0 hr, 100 µM",0.013
same,"growth curve reading, raw replicates (testosterone run)","0 hr, 100 µM",0.046
same,growth curve reading after BLANKING (testosterone run),"2 hr, 0.1 µM",0.048
same,"growth curve reading, raw replicates (testosterone run)","2 hr, 0.1 µM",0.082 and 0.080 and 0.081
same,growth curve reading after BLANKING (testosterone run),"2 hr, 1 µM",0.047
same,"growth curve reading, raw replicates (testosterone run)","2 hr, 1 µM",0.077 and 0.081 and 0.082
same,growth curve reading after BLANKING (testosterone run),"2 hr, 10 µM",0.047
same,"growth curve reading, raw replicates (testosterone run)","2 hr, 10 µM",0.079 and 0.083
same,growth curve reading after BLANKING (testosterone run),"2 hr, 50 µM",0.049
same,"growth curve reading, raw replicates (testosterone run)","2 hr, 50 µM",0.083 and 0.081
same,growth curve reading after BLANKING (testosterone run),"2 hr, 100 µM",0.048
same,"growth curve reading, raw replicates (testosterone run)","2 hr, 100 µM",0.089 and 0.075 and 0.078
same,growth curve reading after BLANKING (testosterone run),"3 hr, 0.1 µM",0.071
same,growth curve reading after BLANKING (testosterone run),"3 hr, 1 µM",0.076
same,growth curve reading after BLANKING (testosterone run),"3 hr, 10 µM",0.073
same,growth curve reading after BLANKING (testosterone run),"3 hr, 50 µM",0.076
same,growth curve reading after BLANKING (testosterone run),"3 hr, 100 µM",0.077
same,"growth curve reading, raw replicates (testosterone run)","3 hr, 100 µM",0.116
same,growth curve reading after BLANKING (testosterone run),"4.03 hr, 0.1 µM",0.095
same,"growth curve reading, raw replicates (testosterone run)","4.03 hr, 0.1 µM",0.117
same,growth curve reading after BLANKING (testosterone run),"4.03 hr, 1 µM",0.101
same,growth curve reading after BLANKING (testosterone run),"4.03 hr, 10 µM",0.099
same,growth curve reading after BLANKING (testosterone run),"4.03 hr, 50 µM",0.102
same,growth curve reading after BLANKING (testosterone run),"4.03 hr, 100 µM",0.108
same,"growth curve reading, raw replicates (testosterone run)","4.03 hr, 100 µM",0.148
same,growth curve reading after BLANKING (testosterone run),"5.03 hr, 0.1 µM",0.121
same,"growth curve reading, raw replicates (testosterone run)","5.03 hr, 0.1 µM",0.160 and 0.163
same,growth curve reading after BLANKING (testosterone run),"5.03 hr, 1 µM",0.127
same,"growth curve reading, raw replicates (testosterone run)","5.03 hr, 1 µM",0.163 and 0.161 and 0.157
same,growth curve reading after BLANKING (testosterone run),"5.03 hr, 10 µM",0.125
same,"growth curve reading, raw replicates (testosterone run)","5.03 hr, 10 µM",0.164 and 0.157 and 0.153
same,growth curve reading after BLANKING (testosterone run),"5.03 hr, 50 µM",0.130
same,"growth curve reading, raw replicates (testosterone run)","5.03 hr, 50 µM",0.161 and 0.162 and 0.165
same,growth curve reading after BLANKING (testosterone run),"5.03 hr, 100 µM",0.139
same,"growth curve reading, raw replicates (testosterone run)","5.03 hr, 100 µM",0.174 and 0.161 and 0.181
same,growth curve reading after BLANKING (testosterone run),"6.03 hr, 0.1 µM",0.152
same,"growth curve reading, raw replicates (testosterone run)","6.03 hr, 0.1 µM",0.171 and 0.189 and 0.195
same,growth curve reading after BLANKING (testosterone run),"6.03 hr, 1 µM",0.157
same,"growth curve reading, raw replicates (testosterone run)","6.03 hr, 1 µM",0.195 and 0.191 and 0.185
same,growth curve reading after BLANKING (testosterone run),"6.03 hr, 10 µM",0.151
same,"growth curve reading, raw replicates (testosterone run)","6.03 hr, 10 µM",0.192 and 0.181 and 0.179
same,growth curve reading after BLANKING (testosterone run),"6.03 hr, 50 µM",0.161
same,"growth curve reading, raw replicates (testosterone run)","6.03 hr, 50 µM",0.192 and 0.195
